In patent US5545547A, “Enzymes as agricultural chemical adjuvants” (priority 1992, dated 1996):

Key:
Type in all cases: in vivo
Alfalfa = assay: Greenhouse multispecies herbicide screen with/without P. mendocina enzyme
Description: (§1) Several plant species including weeds and crops are used in these experiments.
A number of herbicides from various chemical classes were compared in a multispecies screen for percent chlorosis, necrosis and vigor reduction both with and without application of the enzyme from Pseudomonas mendocina ATCC 53552 described earlier. […] Two different enzyme concentrations were used: 0.5 mg/ml (HE) and 0.05 mg/ml (LE) and applied at the rate of 40 gallons/acre. All spraying solutions were at pH 10 and contained 100 mm sodium phosphate each. […] All the experiments were carried out in a greenhouse.
(§2) Chlorosis--figures represent percent of plants showing chlorosis.
(§3) Necrosis--figures represent percent of plants showing necrosis.
(§4) Vigor--figures represent percent of plants showing decreased vigor.
(§5) Phytotoxicity--figures represent the average percent of chlorosis, necrosis, and vigor for a given sample.

Giant Fox Tail = assay: as above
Description: as §1
A number of herbicides from various chemical classes were compared in a multispecies screen for percent chlorosis, necrosis and vigor reduction both with and without application of the enzyme from Pseudomonas mendocina ATCC 53552 described earlier. […] Two different enzyme concentrations were used: 0.5 mg/ml (HE) and 0.05 mg/ml (LE) and applied at the rate of 40 gallons/acre. All spraying solutions were at pH 10 and contained 100 mm sodium phosphate each. Ratings were done at 6 and 12 days after the treatment. All the experiments were carried out in a greenhouse.
as §2, §3, §4, §5

various plants = assay: Greenhouse multispecies herbicide screen, statements on all tested plants; conditions: High HYVAR; all other tested conditions; after two weeks
Excerpt: as §1
A number of herbicides from various chemical classes were compared in a multispecies screen for percent chlorosis, necrosis and vigor reduction both with and without application of the enzyme from Pseudomonas mendocina ATCC 53552 described earlier. The herbicides were applied to various plants at the manufacturers recommended doses and at 10% and 40% of the recommended dose. Two different enzyme concentrations were used: 0.5 mg/ml (HE) and 0.05 mg/ml (LE) and applied at the rate of 40 gallons/acre. All spraying solutions were at pH 10 and contained 100 mm sodium phosphate each. […] All the experiments were carried out in a greenhouse.

[1] = system: Beefsteak Tomato seedlings; assay: HYVAR uptake by whole plants, effect of macerating enzymes (GC219); set-up: key: -=No phytotoxicity; +=Some phytotoxicity seen in area of treatment.; ++=Phytotoxicity seen outside area of treatment
Description: 13-16 day old Beefsteak Tomato seedlings were treated with solutions of HYVAR herbicides [5-bromo-6-methyl-3-(1-methylpropyl)-2,4-(1H,3H)-pyrimidinedione] and GC219. Solutions of Hyvar and GC219 were made up on DI H2 O and 1% ethanol and adjusted with 0.1N HCL to a final pH of 4.0. 10 ul of solution was applied to each cotyledon and 15 ul to each secondary pentafoliate leaflet. 10 tomato seedlings were used for each test solutions. Observations were made daily after treatment for 4 days.
HYVAR herbicide [5-bromo-6-methyl-3-(1-methylpropyl)-2,4-(1H,3H)-pyrimidinedione] was diluted 1:200 or 1:400 for each experiment.

[2] = HYVAR 10% dose, High Enzyme, one week after treatment
[3] = HYVAR 10% dose, Low Enzyme, one week after treatment
[4] = HYVAR 10% dose, No Enzyme, one week after treatment
[5] = HYVAR 18%, High Enzyme, two weeks after treatment
[6] = HYVAR 18%, Low Enzyme, two weeks after treatment
[7] = HYVAR 18%, No Enzyme, two weeks after treatment
[8] = HYVAR 40% dose, High Enzyme, one week after treatment
[9] = HYVAR 40% dose, Low Enzyme, one week after treatment
[10] = HYVAR 40% dose, No Enzyme, one week after treatment
[11] = HYVAR 100% dose, No Enzyme, one week after treatment

CCC(C)n1c(=O)[nH]c(C)c(Br)c1=O (stereo not shown) [HYVAR, 5-bromo-6-methyl-3-(1-methylpropyl)-2,4-(1H,3H)-pyrimidinedione]
CHL (chlorosis) (Alfalfa; [2]): 18% | NEC (necrosis) (Alfalfa; [2]): 0% | PHY (phytotoxicity) (Alfalfa; [2]): 10% | VIG (vigor) (Alfalfa; [2]): 10% | CHL (chlorosis) (Alfalfa; [3]): 50% | NEC (necrosis) (Alfalfa; [3]): 5% | PHY (phytotoxicity) (Alfalfa; [3]): 28% | VIG (vigor) (Alfalfa; [3]): 30% | CHL (chlorosis) (Alfalfa; [4]): 10% | NEC (necrosis) (Alfalfa; [4]): 5% | PHY (phytotoxicity) (Alfalfa; [4]): 8% | VIG (vigor) (Alfalfa; [4]): 10% | CHL (chlorosis) (Alfalfa; [5]): 100% | NEC (necrosis) (Alfalfa; [5]): 100% | PHY (phytotoxicity) (Alfalfa; [5]): 100% | VIG (vigor) (Alfalfa; [5]): 100% | CHL (chlorosis) (Alfalfa; [6]): 100% | NEC (necrosis) (Alfalfa; [6]): 100% | PHY (phytotoxicity) (Alfalfa; [6]): 100% | VIG (vigor) (Alfalfa; [6]): 100% | CHL (chlorosis) (Alfalfa; [7]): 55% | NEC (necrosis) (Alfalfa; [7]): 58% | PHY (phytotoxicity) (Alfalfa; [7]): 57% | VIG (vigor) (Alfalfa; [7]): 58% | CHL (chlorosis) (Alfalfa; [8]): 30% | NEC (necrosis) (Alfalfa; [8]): 13% | PHY (phytotoxicity) (Alfalfa; [8]): 24% | VIG (vigor) (Alfalfa; [8]): 30% | CHL (chlorosis) (Alfalfa; [9]): 30% | NEC (necrosis) (Alfalfa; [9]): 30% | PHY (phytotoxicity) (Alfalfa; [9]): 37% | VIG (vigor) (Alfalfa; [9]): 50% | CHL (chlorosis) (Alfalfa; [10]): 25% | NEC (necrosis) (Alfalfa; [10]): 5% | PHY (phytotoxicity) (Alfalfa; [10]): 15% | VIG (vigor) (Alfalfa; [10]): 15% | CHL (chlorosis) (Alfalfa; [11]): 50% | NEC (necrosis) (Alfalfa; [11]): 10% | PHY (phytotoxicity) (Alfalfa; [11]): 37% | VIG (vigor) (Alfalfa; [11]): 50% | CHL (chlorosis) (Giant Fox Tail; [2]): 18% | NEC (necrosis) (Giant Fox Tail; [2]): 18% | PHY (phytotoxicity) (Giant Fox Tail; [2]): 22% | VIG (vigor) (Giant Fox Tail; [2]): 30% | CHL (chlorosis) (Giant Fox Tail; [3]): 50% | NEC (necrosis) (Giant Fox Tail; [3]): 30% | PHY (phytotoxicity) (Giant Fox Tail; [3]): 43% | VIG (vigor) (Giant Fox Tail; [3]): 50% | CHL (chlorosis) (Giant Fox Tail; [4]): 40% | NEC (necrosis) (Giant Fox Tail; [4]): 30% | PHY (phytotoxicity) (Giant Fox Tail; [4]): 40% | VIG (vigor) (Giant Fox Tail; [4]): 50% | NEC (necrosis) (Giant Fox Tail; [5]): 75% | PHY (phytotoxicity) (Giant Fox Tail; [5]): 75% | VIG (vigor) (Giant Fox Tail; [5]): 75% | CHL (chlorosis) (Giant Fox Tail; [6]): 73% | PHY (phytotoxicity) (Giant Fox Tail; [6]): 73% | CHL (chlorosis) (Giant Fox Tail; [7]): 65% | NEC (necrosis) (Giant Fox Tail; [7]): 63% | PHY (phytotoxicity) (Giant Fox Tail; [7]): 64% | VIG (vigor) (Giant Fox Tail; [7]): 63% | CHL (chlorosis) (Giant Fox Tail; [8]): 38% | NEC (necrosis) (Giant Fox Tail; [8]): 50% | PHY (phytotoxicity) (Giant Fox Tail; [8]): 30% | VIG (vigor) (Giant Fox Tail; [8]): 63% | CHL (chlorosis) (Giant Fox Tail; [9]): 43% | NEC (necrosis) (Giant Fox Tail; [9]): 65% | PHY (phytotoxicity) (Giant Fox Tail; [9]): 57% | VIG (vigor) (Giant Fox Tail; [9]): 63% | CHL (chlorosis) (Giant Fox Tail; [10]): 50% | NEC (necrosis) (Giant Fox Tail; [10]): 38% | PHY (phytotoxicity) (Giant Fox Tail; [10]): 48% | VIG (vigor) (Giant Fox Tail; [10]): 55% | CHL (chlorosis) (Giant Fox Tail; [11]): 60% | NEC (necrosis) (Giant Fox Tail; [11]): 60% | PHY (phytotoxicity) (Giant Fox Tail; [11]): 65% | VIG (vigor) (Giant Fox Tail; [11]): 75% | kill (various plants): 100% | PHYTOTOXICITY RATING ([1]; HYVAR (1:400 dilution), Day 2): - | PHYTOTOXICITY RATING ([1]; HYVAR (1:400 dilution), Day 3): - | PHYTOTOXICITY RATING ([1]; HYVAR alone (1:200 dilution), Day 1): - | PHYTOTOXICITY RATING ([1]; HYVAR alone (1:200 dilution), Day 2): + | PHYTOTOXICITY RATING ([1]; first experiment (1:200), HYVAR + 6.28 mg/ml GC219, Day 1): + | PHYTOTOXICITY RATING ([1]; first experiment (1:200), HYVAR + 6.28 mg/ml GC219, Day 2): ++ | PHYTOTOXICITY RATING ([1]; second experiment (1:400), HYVAR + 6.28 mg/ml GC219, Day 2): + | PHYTOTOXICITY RATING ([1]; second experiment (1:400), HYVAR + 6.28 mg/ml GC219, Day 3): ++ | PHYTOTOXICITY RATING ([1]; second experiment (1:400), HYVAR + 12.6 mg/ml GC219, Day 2): ++ | PHYTOTOXICITY RATING ([1]; second experiment (1:400), HYVAR + 12.6 mg/ml GC219, Day 3): ++
